The target of one assay is ABCA1 (Mus musculus, UniProt P41233). Nature of the assay: cell-based.
Another assay has as its system ABCB1, ABCC1, and ABCG2. As to the kind of experiment: Specificity screen against other ABC transporters: calcein AM (A2780/ADR), daunorubicin (H69AR) and pheophorbide A (MDCK II BCRP) assays. The assay is classed as cell-based. The following applies: 10 µM compound; Supplementary Fig. S3; result in words. From the text: Apart from the high hit rate, potency, and structural diversity of the output molecules, it is important to note that the multitarget dataset cross-annotated the molecular-structural and physicochemical information of ligands on a multitude of targets. In order to assess its ABCA-specificity, we tested the hit compounds 4, 7, 8, 11, 13, 28, 29, 30, 32, 41, 46, 47, 50, 58, and 59 against ABC transporters of three different subfamilies, namely ABCB1, ABCC1, and ABCG2[40]. […] On the other hand, it is unlikely that the compounds bear selectivity toward ABCA1, which can be seen as opportunity to explore other ABCA transporters as well, and warrants future investigations.
Suppl ementary Fig. 3 Biological Assessment of hi t compounds 4 , 7, 8 , 11 , 13 , 28, 29, 30, 32,
cal ce i n AM (a), daunorubicin (b), and pheophorbide A (c) assays using ABCB1-expressing
A 2780/ A DR (a), A BCC 1- expressi ng H 69A R (b), and ABCG2-expressing MDCK II BCRP (c) cells as
2. Möhl e, L. , et al . ABC Transporter C1 Prevents Dimethyl Fumarate from Targeting
Alzheimer's Disease. Biology (Basel) 12 ( 7) , 932,
(1 picture or pasted object on this page, not shown here)

Where [1] appears, read: IC50, full concentration-effect curves, Fig. 4(b), mean ± SEM of at least three independent experiments, J774A.1 cells.

Molecules are shown by their SMILES. Where two headings read alike, the source gives them in different places.

ABCA1, sequence (P41233 whole entry): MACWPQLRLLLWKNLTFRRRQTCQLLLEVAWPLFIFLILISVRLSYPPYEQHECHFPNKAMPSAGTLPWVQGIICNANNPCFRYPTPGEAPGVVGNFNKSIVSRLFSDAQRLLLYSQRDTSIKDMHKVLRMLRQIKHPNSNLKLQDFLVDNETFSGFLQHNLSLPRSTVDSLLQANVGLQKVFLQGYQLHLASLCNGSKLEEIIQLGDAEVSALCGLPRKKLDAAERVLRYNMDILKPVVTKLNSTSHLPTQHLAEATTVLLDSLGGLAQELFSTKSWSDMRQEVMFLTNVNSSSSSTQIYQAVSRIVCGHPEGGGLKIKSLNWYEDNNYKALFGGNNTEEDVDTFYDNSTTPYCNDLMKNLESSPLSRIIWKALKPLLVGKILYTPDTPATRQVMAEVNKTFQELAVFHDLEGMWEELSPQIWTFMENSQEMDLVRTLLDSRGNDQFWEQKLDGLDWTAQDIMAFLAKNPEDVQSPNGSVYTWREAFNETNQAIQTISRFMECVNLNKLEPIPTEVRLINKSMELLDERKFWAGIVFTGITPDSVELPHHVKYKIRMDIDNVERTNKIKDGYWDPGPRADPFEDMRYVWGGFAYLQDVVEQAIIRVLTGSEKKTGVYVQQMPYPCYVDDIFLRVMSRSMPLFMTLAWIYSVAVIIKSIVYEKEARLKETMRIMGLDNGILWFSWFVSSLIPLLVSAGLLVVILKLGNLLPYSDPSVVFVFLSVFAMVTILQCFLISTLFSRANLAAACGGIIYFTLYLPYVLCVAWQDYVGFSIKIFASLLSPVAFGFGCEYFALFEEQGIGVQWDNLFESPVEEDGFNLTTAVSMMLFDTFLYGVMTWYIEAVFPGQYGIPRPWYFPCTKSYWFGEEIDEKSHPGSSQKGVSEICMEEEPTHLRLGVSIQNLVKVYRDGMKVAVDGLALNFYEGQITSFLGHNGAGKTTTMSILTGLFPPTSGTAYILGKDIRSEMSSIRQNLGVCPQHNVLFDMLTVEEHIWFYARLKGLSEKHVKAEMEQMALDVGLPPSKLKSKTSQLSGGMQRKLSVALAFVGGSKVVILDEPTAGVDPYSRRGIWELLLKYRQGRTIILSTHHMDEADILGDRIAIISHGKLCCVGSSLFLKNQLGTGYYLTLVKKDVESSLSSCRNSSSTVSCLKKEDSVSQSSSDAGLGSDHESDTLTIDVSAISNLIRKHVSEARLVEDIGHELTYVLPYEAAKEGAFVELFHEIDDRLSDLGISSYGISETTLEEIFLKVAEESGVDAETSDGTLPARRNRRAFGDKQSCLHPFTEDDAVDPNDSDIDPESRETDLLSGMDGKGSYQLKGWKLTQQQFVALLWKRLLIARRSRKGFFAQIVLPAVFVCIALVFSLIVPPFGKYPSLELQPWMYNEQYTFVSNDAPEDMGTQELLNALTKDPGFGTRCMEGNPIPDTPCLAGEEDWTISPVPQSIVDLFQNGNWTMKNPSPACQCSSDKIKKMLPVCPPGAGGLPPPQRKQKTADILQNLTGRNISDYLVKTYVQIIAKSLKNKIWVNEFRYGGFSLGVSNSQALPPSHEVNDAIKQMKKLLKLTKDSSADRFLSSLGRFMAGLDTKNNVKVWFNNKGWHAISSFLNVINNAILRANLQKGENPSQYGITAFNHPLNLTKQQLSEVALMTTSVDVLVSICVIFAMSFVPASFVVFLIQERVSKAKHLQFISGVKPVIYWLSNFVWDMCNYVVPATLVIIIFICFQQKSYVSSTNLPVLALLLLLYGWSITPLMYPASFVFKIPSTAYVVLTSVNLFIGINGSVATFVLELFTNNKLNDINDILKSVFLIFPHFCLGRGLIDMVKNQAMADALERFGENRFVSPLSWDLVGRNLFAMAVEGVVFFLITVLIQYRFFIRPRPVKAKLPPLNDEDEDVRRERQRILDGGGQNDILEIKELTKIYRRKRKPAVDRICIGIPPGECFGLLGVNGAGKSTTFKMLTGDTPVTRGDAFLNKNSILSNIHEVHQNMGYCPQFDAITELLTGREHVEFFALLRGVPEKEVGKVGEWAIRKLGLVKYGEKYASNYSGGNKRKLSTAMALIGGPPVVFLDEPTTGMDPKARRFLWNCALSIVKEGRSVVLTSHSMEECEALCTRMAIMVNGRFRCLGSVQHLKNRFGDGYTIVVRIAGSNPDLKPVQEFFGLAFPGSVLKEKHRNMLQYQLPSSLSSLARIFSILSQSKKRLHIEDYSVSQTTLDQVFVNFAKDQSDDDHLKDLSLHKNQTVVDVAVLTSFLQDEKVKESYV
Protocol for ABCA1: In order to validate the prediction capabilities of the presented workflow, these 66 molecules were assessed in one of the most commonly used assessment platforms for ABCA1 function[21], namely a 25-NBD-cholesterol assay and ABCA1-expressing murine J774A.1 macrophages [TB-67, American Type Culture Collection (ATCC); cultured in Dulbecco’s modified eagle medium (DMEM; Biowest, Nuaillé, France)].

With `COc1cc(OC)c2cc(C(=O)N3C[C@@H](O)CC4(CCCC4)C3)[nH]c2c1OC` [Compound 47], the IC50 against ABCA1 is 21.5 ± 3.4 µM; on ABCA1 (setting [1]) it was 18.9 ± 2.3 µM.

In the case of `COCCc1ccc(OCC(O)CNC(=O)C2CC(F)(F)CCC2(C)C)cc1` (centres unmarked) [Compound 11], the IC50 against ABCA1 was determined as 5.08 ± 0.62 µM; at ABCA1 (setting [1]) it was 8.76 ± 1.04 µM. In addition, the “inhibition of other ABC transporters (ABCB1, ABCC1, ABCG2)” value in the assay with ABCB1, ABCC1, and ABCG2 is recorded as “least inhibition of other ABC transporters”.

Turning to `COc1ccc2c(N3C[C@H](O)[C@H](O)CC4(CCCC4)C3)ncnc2c1F` [Compound 59], the IC50 amounted to 9.12 ± 2.9 µM against ABCA1 and 21.2 ± 0.6 µM against ABCA1 (setting [1]). In addition, in the assay with ABCB1, ABCC1, and ABCG2, the “inhibition of other ABC transporters (ABCB1, ABCC1, ABCG2)” value was “significant inhibition against either two or three of the assessed transporters”.
